Source: US20050191348A1 (priority 2004, published 2005)
Marks after values point to notes of the source that are not given here.

Tests used:
PC12 cells [1] = experiment: Cell death under serum deprivation (apoptotic cell death detection ELISA), PC12; assay type: cell-based, rat; conditions: PC12, 24 h serum deprivation, significant at 1 and 10 μM
Description: Two different neuronal cell lines were used: the rat PC12 and the human neuroblastoma SH-SY5Y cells.
PC12 cells, originated from rat pheochromocytoma, were grown to confluence in T75 flasks containing DMEM (1000 mg/l glucose) and supplemented with 5% FCS, 10% horse serum, and a mixture of 1% of penicillin/streptomycin/nystatin.
Cell cultures were incubated at 37° C. in a humid 5% CO2-95% air environment. For cell viability assays, cells were treated with various drugs in serum free media containing 0.1% BSA.
In order to test cell viability, PC12 cells and SH-SY5Y neuroblastoma cels were incubated under serum deprivation and were untreated or treated with rasagiline (0.1. 1 or 10 μM) for 24 hours.

sAPPα = sAPPα release into medium of SH-SY5Y neuroblastoma cells; assay type: cell-based, human; conditions: 1 μM, 3 h, SH-SY5Y conditioned media, mean ± SE of three experiments
Description: For the experiments, cells were seeded (2×10^6) onto 100-mm plates (for SH-SY5Y cells) or T75 flasks (for PC12 cells) in culture medium supplemented with full serum for 48 h. The cells were replaced with fresh medium containing 0.5% FCS for an additional 24 h (subconfluent culture), and then the experiments were performed in fresh medium containing 0.5% FCS for the indicated time periods at 37° C. After incubation with various drugs, the conditioned media were collected, centrifuged at 3500 g (10 min, 4° C.) to remove cell debris, and the cleared supernatants were concentrated 10-fold by lyophilization.
(vii) Determination of sAPP. Protein concentrations of cell lysates were assayed using Bradford reagent (Sigma Chemical). Equal amounts of volumes of conditioned medium, standardized to lysate protein, were subjected to […], using either the MAbs 22C11 or 6E10 in 50 mM Tris-HCl, pH 7.4, 150 mM NaCl, containing 0.05% Tween 20 and 1% BSA. Immunoreactivity was detected using anti-mouse IgG-conjugated with HRP and an enhanced chemiluminescence method (Amersham, Pharmacia Biotech, UK). Blots were developed for different times to span a linear range of response, and the relative intensity of immunoreactive bands on the exposed films was quantified by computer-assisted densitometry program (Quantity One, Bio-Rad, Hercules, Calif., USA).
It was of interest to determine whether rasagiline and other propargylamine-containing drugs also regulate APP processing. For this purpose, SH-SY5Y neuroblastoma cells were incubated for 3 h without or with 1 μM of various drugs (TV3326 and its S-isomer TV3279, rasagiline and its S-isomer TVP1022, selegiline, aminoindan), and sAPPα was measured in the media as described in Materials and Methods.
We further characterized, in detail, the effect of rasagiline on APP processing and the signaling pathways that are involved. Thus, SH-SY5Y neuroblastoma cells were incubated for 3 h without or with increasing concentrations of rasagiline (0.1, 1 and 10 μM), and sAPPα was measured in the media as described in Materials and Methods.
For the sAPPα release, SH-SY5Y neuroblastoma cells or PC12 cells were incubated for 3 h without or with increasing concentrations of propargylamine (0.1, 1 and 10 μM), and sAPPα was measured in the media as described in Materials and Methods.

MAO = conditions: Youdim et al., 2001b; cited from earlier work
PC12 cells [2] = conditions: PC12, Aβ1-42 10 μM 24 h

For `C#CCN[C@@H]1CCc2ccccc21` [TVP1022], the “cell death induced by serum deprivation” value (PC12 cells [1]) is given as “protected serum deprived PC12 cells from apoptosis”, the “sAPPα secretion (fold/basal)” value (sAPPα) is given as 2.43 ± 0.27^c fold/basal and the “fold weaker as an inhibitor of MAO than rasagiline” value (MAO) is given as “at least 1000 fold”. For the same compound, the “protection against Aβ1-42 neurotoxicity” value (PC12 cells [2]) was “protected PC12 cells from Aβ-evoked apoptosis”.
